The text below walks through data of US8012466B2, “Immunogenic compositions for activating γδ T cells” (priority 2008, dated 2011).

In one assay the test system is Vγ9/Vδ2. As to conditions: cited from earlier work.
Assay [1] deals with Vγ2Vδ2 TCR transfectant, DBS43. As to the kind of experiment: IL-2 release by Vγ2Vδ2 TCR transfectant DBS43. It counts as cell-based. The following applies: unpublished data.
The subject of assay [2] is Vγ2Vδ2 T cells. As to the kind of experiment: In vitro HMBPP response of rhesus monkey PBMC. The following applies: PBMC stimulated with 100 nM HMBPP. It counts as cell-based. An excerpt:
FIG. 7. Characteristics of rhesus monkey Vγ2Vδ2 T cells. (A). Large in vitro HMBPP responses by Vγ2Vδ2 T cells from most rhesus monkeys. […] (B). Uniform memory subset distribution of rhesus monkey Vγ2Vδ2 T cells. PBMC from 22 monkeys were stained for Vδ2, […], and […]. Vδ2^+ cells were divided in 4 groups based on their expression of CD28 and CD27.
Memory subset distribution and HMBPP response of rhesus monkey Vγ2Vδ2 T cells—In preparation for in vivo immunization of rhesus monkey, we screened 33 monkeys for their ability to respond to HMBPP in vitro, γδ T cells levels, V gene expression, and memory subset distribution. […] Like human Vγ2Vδ2 T cells, monkey Vγ2Vδ2 T cells also could be divided into 4 subsets based on expression of CD28 and CD27 (TEarly=central memory=CD28^+27^+, TEarly CD27−=CD28^+27^−, TIntermediate=CD28^−27^+, and TLate CD45RA+=CD28^−27^−). However, unlike human donors, there were very few monkeys with a predominance of the TLate RA subset. Moreover, whereas Vγ2Vδ2 T cells constituted 73% of human adult γδ T cells, Vγ2Vδ2 T cells constituted only 29% of monkey γδ T cells consistent with our earlier study. […]

For assay [3], the system named is Vγ2Vδ2 T cells. As to the kind of experiment: Immunization of rhesus monkeys with zoledronate and HMBPP plus sc IL-2. The following applies: for in vitro reactivity of PBMC to HMBPP after immunization: PBMC before and ~2 weeks after each immunization, cultured with HMBPP 9 days; for outcome of repeated immunization in vivo: zoledronate 0.06 mg/kg sc or iv twice, then HMBPP 70 mg/kg iv, sc IL-2. It counts as in vivo, rhesus monkey.

Entries after “also recorded” stand apart in the source; their conditions may differ.

As to `CC(O)(CBr)CCOP(=O)(O)OP(=O)(O)O` (centres unmarked) [BrHPP, bromohydrin pyrophosphate], the “return of expansion to baseline” value in the assay on Vγ9/Vδ2 (cynomolgus monkey, in vivo) was 10 to 15 days. In the assay on Vγ9/Vδ2 (first and successive infusions), the “expansion of Vγ9/Vδ2” value is “transiently expand; also recorded: less vigorous expansions”.

Turning to `C/C(=C\COP(=O)(O)OP(=O)(O)O)CO` [HMBPP, (E)-4-hydroxy-3-methyl-but-2-enyl pyrophosphate], in assay [1], the IL-2 release entry was “release IL-2 in response to HMBPP”. The “monkeys with expansion to >40%” value in the assay with Vγ2Vδ2 T cells [2] is listed as 32/33. Further, in the assay with Vγ2Vδ2 T cells [3], the “in vitro reactivity of PBMC to HMBPP after immunization” value is recorded as “leads to loss of in vitro reactivity to HMBPP” and the “outcome of repeated immunization in vivo” value was “leads to immune exhaustion”.

Take `O=P(O)(O)C(O)(Cn1ccnc1)P(=O)(O)O` [zoledronate]: in the assay on Vγ2Vδ2 T cells [3], the “in vitro reactivity of PBMC to HMBPP after immunization” value is “leads to loss of in vitro reactivity to HMBPP”; the “outcome of repeated immunization in vivo” value was “loss of in vivo (FIG. 8) and in vitro proliferation by Vγ2Vδ2 T cells to antigenic stimulation; also recorded: leads to immune exhaustion”.
